From PubChem BioAssay (NCI)
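All cell lines were grown in 96-well plates and treated with compound for 48 hours. TGI: total growth inhibition.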

Tests used:
Test in all cases: growth of human tumour cells (NCI), 48 h
UACC-257 melanoma = system: UACC-257 melanoma
OVCAR-8 ovarian = system: OVCAR-8 ovarian
SK-MEL-28 melanoma = system: SK-MEL-28 melanoma
RXF 393 renal = system: RXF 393 renal
OVCAR-5 ovarian = system: OVCAR-5 ovarian
HOP-62 NSCLC = system: HOP-62 NSCLC
SF-295 CNS = system: SF-295 CNS
SF-268 CNS = system: SF-268 CNS
KM20L2 colon = system: KM20L2 colon
RXF-631 renal = system: RXF-631 renal
OVCAR-4 ovarian = system: OVCAR-4 ovarian
EKVX NSCLC = system: EKVX NSCLC
M19-MEL melanoma = system: M19-MEL melanoma
NCI-H226 lung = system: NCI-H226 lung
COLO 205 colon = system: COLO 205 colon
SNB-75 CNS = system: SNB-75 CNS
A498 renal = system: A498 renal
UO-31 renal = system: UO-31 renal
ACHN renal = system: ACHN renal
KM12 colon = system: KM12 colon
OVCAR-3 ovarian = system: OVCAR-3 ovarian
NCI-H460 lung = system: NCI-H460 lung
DMS 273 small cell lung = system: DMS 273 small cell lung
LXFL 529 NSCLC = system: LXFL 529 NSCLC
HCT-15 colon = system: HCT-15 colon
SW-620 colon = system: SW-620 colon
HOP-18 NSCLC = system: HOP-18 NSCLC
SN12C renal = system: SN12C renal
HCT-116 colon = system: HCT-116 colon
SK-MEL-2 melanoma = system: SK-MEL-2 melanoma
DLD-1 colon = system: DLD-1 colon
NCI-H23 lung = system: NCI-H23 lung
U251 CNS = system: U251 CNS
UACC-62 melanoma = system: UACC-62 melanoma
TK-10 renal = system: TK-10 renal
A549 NSCLC = system: A549 NSCLC
CAKI-1 renal = system: CAKI-1 renal
LOX IMVI melanoma = system: LOX IMVI melanoma
SF-539 CNS = system: SF-539 CNS
MOLT-4 leukemia = system: MOLT-4 leukemia
IGROV1 ovarian = system: IGROV1 ovarian
HOP-92 NSCLC = system: HOP-92 NSCLC
MALME-3M melanoma = system: MALME-3M melanoma
CCRF-CEM leukemia = system: CCRF-CEM leukemia
HCC-2998 colon = system: HCC-2998 colon
786-0 renal = system: 786-0 renal
XF 498 CNS = system: XF 498 CNS
HL-60(TB) leukemia = system: HL-60(TB) leukemia
K-562 leukemia = system: K-562 leukemia
HT29 colon = system: HT29 colon
SNB-78 CNS = system: SNB-78 CNS
SK-MEL-5 melanoma = system: SK-MEL-5 melanoma
M14 melanoma = system: M14 melanoma
SNB-19 CNS = system: SNB-19 CNS
DMS 114 small cell lung = system: DMS 114 small cell lung
SK-OV-3 ovarian = system: SK-OV-3 ovarian
SR leukemia = system: SR leukemia
RPMI-8226 leukemia = system: RPMI-8226 leukemia
NCI-H522 lung = system: NCI-H522 lung

Cc1ccccc1C(=O)c1ccccc1O
TGI (UACC-257 melanoma): > 100 µM
TGI (OVCAR-8 ovarian): > 100 µM
TGI (SK-MEL-28 melanoma): > 100 µM
TGI (RXF 393 renal): > 100 µM
TGI (OVCAR-5 ovarian): > 100 µM
TGI (HOP-62 NSCLC): > 100 µM
TGI (SF-295 CNS): > 100 µM
TGI (SF-268 CNS): > 100 µM
TGI (KM20L2 colon): > 100 µM
TGI (RXF-631 renal): > 100 µM
TGI (OVCAR-4 ovarian): > 100 µM
TGI (EKVX NSCLC): > 100 µM
TGI (M19-MEL melanoma): > 100 µM
TGI (NCI-H226 lung): > 100 µM
TGI (COLO 205 colon): > 100 µM
TGI (SNB-75 CNS): > 100 µM
TGI (A498 renal): > 100 µM
TGI (UO-31 renal): > 100 µM
TGI (ACHN renal): > 100 µM
TGI (KM12 colon): > 100 µM
TGI (OVCAR-3 ovarian): > 100 µM
TGI (NCI-H460 lung): > 100 µM
TGI (DMS 273 small cell lung): > 100 µM
TGI (LXFL 529 NSCLC): > 100 µM
TGI (HCT-15 colon): > 100 µM
TGI (SW-620 colon): > 100 µM
TGI (HOP-18 NSCLC): > 100 µM
TGI (SN12C renal): > 100 µM
TGI (HCT-116 colon): > 100 µM
TGI (SK-MEL-2 melanoma): > 100 µM
TGI (DLD-1 colon): > 100 µM
TGI (NCI-H23 lung): > 100 µM
TGI (U251 CNS): > 100 µM
TGI (UACC-62 melanoma): > 100 µM
TGI (TK-10 renal): > 100 µM
TGI (A549 NSCLC): > 100 µM
TGI (CAKI-1 renal): > 100 µM
TGI (LOX IMVI melanoma): > 100 µM
TGI (SF-539 CNS): > 100 µM
TGI (MOLT-4 leukemia): > 100 µM
TGI (IGROV1 ovarian): > 100 µM
TGI (HOP-92 NSCLC): > 100 µM
TGI (MALME-3M melanoma): > 100 µM
TGI (CCRF-CEM leukemia): > 100 µM
TGI (HCC-2998 colon): > 100 µM
TGI (786-0 renal): > 100 µM
TGI (XF 498 CNS): > 100 µM
TGI (HL-60(TB) leukemia): > 100 µM
TGI (K-562 leukemia): > 100 µM
TGI (HT29 colon): > 100 µM
TGI (SNB-78 CNS): > 100 µM
TGI (SK-MEL-5 melanoma): > 100 µM
TGI (M14 melanoma): > 100 µM
TGI (SNB-19 CNS): > 100 µM
TGI (DMS 114 small cell lung): > 100 µM
TGI (SK-OV-3 ovarian): > 100 µM

O=[N+]([O-])c1nccn1CC(O)CN1CC1 (stereo unspecified)
TGI (UACC-257 melanoma): > 100 µM
TGI (OVCAR-8 ovarian): > 100 µM
TGI (SK-MEL-28 melanoma): > 100 µM
TGI (RXF 393 renal): 98.2 µM
TGI (OVCAR-5 ovarian): > 100 µM
TGI (HOP-62 NSCLC): > 100 µM
TGI (SF-295 CNS): > 100 µM
TGI (SF-268 CNS): > 100 µM
TGI (KM20L2 colon): > 100 µM
TGI (RXF-631 renal): > 100 µM
TGI (OVCAR-4 ovarian): > 100 µM
TGI (EKVX NSCLC): > 100 µM
TGI (M19-MEL melanoma): > 100 µM
TGI (NCI-H226 lung): > 100 µM
TGI (COLO 205 colon): > 100 µM
TGI (SNB-75 CNS): > 100 µM
TGI (A498 renal): > 100 µM
TGI (UO-31 renal): > 100 µM
TGI (ACHN renal): > 100 µM
TGI (KM12 colon): > 100 µM
TGI (OVCAR-3 ovarian): > 100 µM
TGI (NCI-H460 lung): > 100 µM
TGI (DMS 273 small cell lung): > 100 µM
TGI (LXFL 529 NSCLC): > 100 µM
TGI (HCT-15 colon): > 100 µM
TGI (SW-620 colon): > 100 µM
TGI (HOP-18 NSCLC): > 100 µM
TGI (SN12C renal): > 100 µM
TGI (HCT-116 colon): > 100 µM
TGI (SK-MEL-2 melanoma): > 100 µM
TGI (SR leukemia): > 100 µM
TGI (RPMI-8226 leukemia): > 100 µM
TGI (DLD-1 colon): > 100 µM
TGI (NCI-H23 lung): > 100 µM
TGI (NCI-H522 lung): 50.9 µM
TGI (U251 CNS): > 100 µM
TGI (UACC-62 melanoma): > 100 µM
TGI (TK-10 renal): > 100 µM
TGI (A549 NSCLC): > 100 µM
TGI (CAKI-1 renal): > 100 µM
TGI (SF-539 CNS): > 100 µM
TGI (MOLT-4 leukemia): > 100 µM
TGI (IGROV1 ovarian): > 100 µM
TGI (MALME-3M melanoma): > 100 µM
TGI (CCRF-CEM leukemia): > 100 µM
TGI (786-0 renal): > 100 µM
TGI (XF 498 CNS): > 100 µM
TGI (HL-60(TB) leukemia): 73.1 µM
TGI (K-562 leukemia): > 100 µM
TGI (HT29 colon): > 100 µM
TGI (SNB-78 CNS): > 100 µM
TGI (SK-MEL-5 melanoma): > 100 µM
TGI (M14 melanoma): > 100 µM
TGI (SNB-19 CNS): > 100 µM
TGI (DMS 114 small cell lung): > 100 µM
TGI (SK-OV-3 ovarian): 94.7 µM

CC(C)c1ccc(C2C3=C(N=C4SCC(=O)N42)C(=O)c2ccccc23)cc1 (stereo unspecified)
TGI (UACC-257 melanoma): > 100 µM
TGI (OVCAR-8 ovarian): > 100 µM
TGI (SK-MEL-28 melanoma): > 100 µM
TGI (OVCAR-5 ovarian): > 100 µM
TGI (HOP-62 NSCLC): > 100 µM
TGI (SF-295 CNS): > 100 µM
TGI (SF-268 CNS): > 100 µM
TGI (KM20L2 colon): > 100 µM
TGI (RXF-631 renal): > 100 µM
TGI (OVCAR-4 ovarian): > 100 µM
TGI (EKVX NSCLC): > 100 µM
TGI (M19-MEL melanoma): > 100 µM
TGI (NCI-H226 lung): > 100 µM
TGI (COLO 205 colon): > 100 µM
TGI (SNB-75 CNS): > 100 µM
TGI (A498 renal): > 100 µM
TGI (UO-31 renal): > 100 µM
TGI (ACHN renal): > 100 µM
TGI (KM12 colon): > 100 µM
TGI (OVCAR-3 ovarian): > 100 µM
TGI (NCI-H460 lung): > 100 µM
TGI (DMS 273 small cell lung): > 100 µM
TGI (LXFL 529 NSCLC): > 100 µM
TGI (HCT-15 colon): > 100 µM
TGI (SW-620 colon): > 100 µM
TGI (SN12C renal): > 100 µM
TGI (HCT-116 colon): > 100 µM
TGI (SK-MEL-2 melanoma): > 100 µM
TGI (RPMI-8226 leukemia): > 100 µM
TGI (DLD-1 colon): > 100 µM
TGI (NCI-H23 lung): > 100 µM
TGI (NCI-H522 lung): 98.7 µM
TGI (U251 CNS): > 100 µM
TGI (UACC-62 melanoma): > 100 µM
TGI (TK-10 renal): > 100 µM
TGI (A549 NSCLC): > 100 µM
TGI (CAKI-1 renal): > 100 µM
TGI (SF-539 CNS): > 100 µM
TGI (MOLT-4 leukemia): > 100 µM
TGI (IGROV1 ovarian): > 100 µM
TGI (HOP-92 NSCLC): > 100 µM
TGI (MALME-3M melanoma): > 100 µM
TGI (CCRF-CEM leukemia): > 100 µM
TGI (HCC-2998 colon): > 100 µM
TGI (786-0 renal): > 100 µM
TGI (XF 498 CNS): > 100 µM
TGI (HL-60(TB) leukemia): > 100 µM
TGI (K-562 leukemia): > 100 µM
TGI (HT29 colon): > 100 µM
TGI (SK-MEL-5 melanoma): > 100 µM
TGI (M14 melanoma): > 100 µM
TGI (SNB-19 CNS): > 100 µM
TGI (DMS 114 small cell lung): > 100 µM
TGI (SK-OV-3 ovarian): > 100 µM
